From PubChem BioAssay (NCI)
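These data come from cells grown in 96-well plates and exposed to compound for 48 hours at five concentrations. GI50 = concentration required for 50% inhibition of growth. TGI: concentration producing complete growth inhibition.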 *1 amine or outer side, *2 acyl side, *3 side chain or, on linkers, in order; H or OH if unused. Where a SMILES comes first, the peptide text is derived from it. [ ]: non-standard residue; d: D form. The star is where a group is joined. X12 = NCCCCC(N[*:1])C(=O)CN1CCCC1C(=O)[*:2]; Pentadecanoyl = CCCCCCCCCCCCCCC(=O)*

Experiments:
Assay in all cases: DTP human tumour cell line panel, 48 h
MCF7 breast = test system: MCF7 breast
NCI/ADR-RES ovarian = test system: NCI/ADR-RES ovarian
SF-268 CNS = test system: SF-268 CNS
UO-31 renal = test system: UO-31 renal
HOP-92 NSCLC = test system: HOP-92 NSCLC
HL-60(TB) leukemia = test system: HL-60(TB) leukemia
NCI-H522 lung = test system: NCI-H522 lung
BT-549 breast = test system: BT-549 breast
HT29 colon = test system: HT29 colon
A498 renal = test system: A498 renal
SK-MEL-5 melanoma = test system: SK-MEL-5 melanoma
COLO 205 colon = test system: COLO 205 colon
T-47D breast = test system: T-47D breast
SW-620 colon = test system: SW-620 colon
SK-MEL-28 melanoma = test system: SK-MEL-28 melanoma
HOP-62 NSCLC = test system: HOP-62 NSCLC
A549 NSCLC = test system: A549 NSCLC
SNB-75 CNS = test system: SNB-75 CNS
MALME-3M melanoma = test system: MALME-3M melanoma
DU-145 prostate = test system: DU-145 prostate
NCI-H460 lung = test system: NCI-H460 lung
HCC-2998 colon = test system: HCC-2998 colon
TK-10 renal = test system: TK-10 renal
SK-MEL-2 melanoma = test system: SK-MEL-2 melanoma
M14 melanoma = test system: M14 melanoma
UACC-257 melanoma = test system: UACC-257 melanoma
MDA-MB-435 = test system: MDA-MB-435
IGROV1 ovarian = test system: IGROV1 ovarian
SF-539 CNS = test system: SF-539 CNS
KM12 colon = test system: KM12 colon
SF-295 CNS = test system: SF-295 CNS
K-562 leukemia = test system: K-562 leukemia
HCT-116 colon = test system: HCT-116 colon
NCI-H226 lung = test system: NCI-H226 lung
RPMI-8226 leukemia = test system: RPMI-8226 leukemia
EKVX NSCLC = test system: EKVX NSCLC
MDA-MB-231 breast = test system: MDA-MB-231 breast
OVCAR-5 ovarian = test system: OVCAR-5 ovarian
NCI-H23 lung = test system: NCI-H23 lung
CCRF-CEM leukemia = test system: CCRF-CEM leukemia
HS 578T breast = test system: HS 578T breast
CAKI-1 renal = test system: CAKI-1 renal
SR leukemia = test system: SR leukemia
SK-OV-3 ovarian = test system: SK-OV-3 ovarian
RXF 393 renal = test system: RXF 393 renal
SNB-19 CNS = test system: SNB-19 CNS
OVCAR-8 ovarian = test system: OVCAR-8 ovarian
OVCAR-3 ovarian = test system: OVCAR-3 ovarian
MOLT-4 leukemia = test system: MOLT-4 leukemia
OVCAR-4 ovarian = test system: OVCAR-4 ovarian

With `CCCCCCCCCCCCCCC(=O)NC(CCCCN)C(=O)CN1CCCC1C(=O)NCC(=O)NC(Cc1ccccc1)C(=O)N1CCCC1C(=O)NC(CO)C(=O)NC(Cc1ccc(O)cc1)C(=O)NC(CCCCN)C(=O)NC(CC(C)C)C(=O)NC(CCCN=C(N)N)C(=O)N1CCCC1C(=O)NCC(N)=O` (stereo not given) (Pentadecanoyl-[X12]GFPSYKLRPG-NH2; configuration not given here) the GI50 (MCF7 breast) was 27.6 µM, the TGI (MCF7 breast) was 61.3 µM and the GI50 (NCI/ADR-RES ovarian) was 20.6 µM. The TGI (NCI/ADR-RES ovarian) was 43.7 µM, the GI50 (SF-268 CNS) was 22.4 µM and the TGI (SF-268 CNS) was 52.9 µM. It also gave a GI50 (UO-31 renal) of 22.6 µM, a TGI (UO-31 renal) of 60.2 µM and a GI50 (HOP-92 NSCLC) of 15.9 µM. The TGI (HOP-92 NSCLC) was 37.4 µM, the GI50 (HL-60(TB) leukemia) was 27.3 µM and the TGI (HL-60(TB) leukemia) was 90.8 µM. For the same compound, the GI50 (NCI-H522 lung) was 23.1 µM, the TGI (NCI-H522 lung) was 55.6 µM and the GI50 (BT-549 breast) was 29.6 µM. For the same compound, the TGI (BT-549 breast) was 59.6 µM, the GI50 (HT29 colon) was 36.9 µM and the TGI (HT29 colon) was over 100 µM. The GI50 (A498 renal) was 40.6 µM, the TGI (A498 renal) was over 100 µM and the GI50 (SK-MEL-5 melanoma) was 30.5 µM. The TGI (SK-MEL-5 melanoma) was over 100 µM, the GI50 (COLO 205 colon) was 15.6 µM and the TGI (COLO 205 colon) was 33.8 µM. It also gave a GI50 (T-47D breast) of 17.2 µM, a TGI (T-47D breast) of 40.7 µM and a GI50 (SW-620 colon) of 29.9 µM. It also gave a TGI (SW-620 colon) of 80.9 µM, a GI50 (SK-MEL-28 melanoma) of 25.7 µM and a TGI (SK-MEL-28 melanoma) of 60.6 µM. It also gave a GI50 (HOP-62 NSCLC) of 20.5 µM, a TGI (HOP-62 NSCLC) of 45.2 µM and a GI50 (A549 NSCLC) of 23.7 µM. It also gave a TGI (A549 NSCLC) of 47.6 µM, a GI50 (SNB-75 CNS) of 27.6 µM and a TGI (SNB-75 CNS) of 58.5 µM. It also gave a GI50 (MALME-3M melanoma) of 8.11 µM, a TGI (MALME-3M melanoma) of 32.2 µM and a GI50 (DU-145 prostate) of 24.1 µM. For the same compound, the TGI (DU-145 prostate) was 53.8 µM, the GI50 (NCI-H460 lung) was 28.3 µM and the TGI (NCI-H460 lung) was 83.7 µM. It also gave a GI50 (HCC-2998 colon) of 17.7 µM, a TGI (HCC-2998 colon) of 35.2 µM and a GI50 (TK-10 renal) of 11.7 µM. The TGI (TK-10 renal) was 32.9 µM, the GI50 (SK-MEL-2 melanoma) was 37.5 µM and the TGI (SK-MEL-2 melanoma) was over 100 µM. It also gave a GI50 (M14 melanoma) of 19.2 µM, a TGI (M14 melanoma) of 39.8 µM and a GI50 (UACC-257 melanoma) of 29.5 µM. For the same compound, the TGI (UACC-257 melanoma) was 52.1 µM, the GI50 (MDA-MB-435) was 28.2 µM and the TGI (MDA-MB-435) was 89.3 µM. It also gave a GI50 (IGROV1 ovarian) of 19.5 µM, a TGI (IGROV1 ovarian) of 57.3 µM and a GI50 (SF-539 CNS) of 27.2 µM. It also gave a TGI (SF-539 CNS) of 59.9 µM, a GI50 (KM12 colon) of 7.61 µM and a TGI (KM12 colon) of 38.7 µM. It also gave a GI50 (SF-295 CNS) of 26.2 µM, a TGI (SF-295 CNS) of 57.3 µM and a GI50 (K-562 leukemia) of 19.5 µM. The TGI (K-562 leukemia) was 40 µM, the GI50 (HCT-116 colon) was 14.2 µM and the TGI (HCT-116 colon) was 29.6 µM. It also gave a GI50 (NCI-H226 lung) of 17.8 µM, a TGI (NCI-H226 lung) of 38.6 µM and a GI50 (RPMI-8226 leukemia) of 14.7 µM. The TGI (RPMI-8226 leukemia) was 30.8 µM, the GI50 (EKVX NSCLC) was 25.9 µM and the TGI (EKVX NSCLC) was 60.5 µM. The GI50 (MDA-MB-231 breast) was 16.7 µM, the TGI (MDA-MB-231 breast) was 32.5 µM and the GI50 (OVCAR-5 ovarian) was 18.7 µM. For the same compound, the TGI (OVCAR-5 ovarian) was 44.4 µM, the GI50 (NCI-H23 lung) was 21.7 µM and the TGI (NCI-H23 lung) was 49.6 µM. The GI50 (CCRF-CEM leukemia) was 16.8 µM, the TGI (CCRF-CEM leukemia) was 32.2 µM and the GI50 (HS 578T breast) was 38.6 µM. It also gave a TGI (HS 578T breast) of over 100 µM, a GI50 (CAKI-1 renal) of 20.6 µM and a TGI (CAKI-1 renal) of 48.7 µM. The GI50 (SR leukemia) was 16.2 µM, the TGI (SR leukemia) was 50.8 µM and the GI50 (SK-OV-3 ovarian) was 23.5 µM. The TGI (SK-OV-3 ovarian) was 43.4 µM, the GI50 (RXF 393 renal) was 26.1 µM and the TGI (RXF 393 renal) was 60.4 µM. It also gave a GI50 (SNB-19 CNS) of 24.4 µM, a TGI (SNB-19 CNS) of 50.4 µM and a GI50 (OVCAR-8 ovarian) of 27.8 µM. For the same compound, the TGI (OVCAR-8 ovarian) was 64.4 µM, the GI50 (OVCAR-3 ovarian) was 28 µM and the TGI (OVCAR-3 ovarian) was 64.6 µM. It also gave a GI50 (MOLT-4 leukemia) of 16.3 µM, a TGI (MOLT-4 leukemia) of 34.6 µM and a GI50 (OVCAR-4 ovarian) of 34.8 µM. For the same compound, the TGI (OVCAR-4 ovarian) was 87.2 µM.
